Literature values as cited in patent publication US20090274776A1, “Method for the Diagnosis and Treatment of Conditions Involving Aberrant Erythrocyte Potassium Levels” (THE REGENTS OF THE UNIVERSITY OF MICHIGAN, priority 2006, published 2009).

Tests used:
RBC = RBC treated with the substance; by activation of IKCa
[1] = tested on: endothelium-derived hyperpolarizing factor (EDHF); details: in the presence of apamin
KCa in RBC = target: T1, KCa in RBC (Homo sapiens, UniProt O15554); details: red blood cells
T1 construct: host or cells: red blood cells (endogenous channel)

## Nc1nc2c(nc(Br)n2[C@@H]2O[C@@H]3COP(=O)(O)O[C@H]3[C@H]2O)c(=O)[nH]1 [8Br-cGMP]
RBC
  K+ efflux in RBC: increased

## OC1(c2cccc(Cl)c2)C2=NCCCN2c2ccccc21 (stereo not shown) [Ciclazindol]
[1]
  EDHF relaxation: abolishes
KCa in RBC
  effect on KCa in RBC: inhibits

## CC1(C)Oc2ccc(C#N)cc2C(N2CCCC2=O)C1O (stereo not shown) [cromakalim]
KCa in RBC
  effect on KCa in RBC: opens
